# From patent US4740501A (priority 1985, dated 1988)
# “And” between values parts separate entries of the source, which are not always exact repeats. Equal entries are not always repeated.
# How the values were obtained:
# B-95-8 B-lymphoma = test: Tumor cell survival (trypan blue), continuous exposure; type: cell-based, Marmorset
# ALL (N cell leukemia) = test: Survival of fresh human leukemic cells, continuous exposure; type: cell-based; conditions: for % tumor cell survival: ALL
# [1] = tested on: MJY-alpha mammary tumor cells; test: Bioassay of tumorigenicity of in vitro treated tumor cells in syngeneic hosts; type: in vivo, BALB/c mice; conditions: for MEAN SURVIVAL TIME (MST) of recipients: control 42
# Description: (§1) Suspensions of untreated and tripeptide treated MJY-alpha mammary tumor, B-16 melanoma, and L-1210 leukemia cells were adjusted to a concentration of 1×10^7 cells/ml based on the initial tumor cell concentration before the tripeptide exposure. Tumor cells were inoculated into syngeneic hosts at a concentration of 1×10^6 cells in […]. Female BALB/c/Crgl recipients of MJY-alpha mammary tumor cells and male C57BL/6/Jx hosts receiving B16 melanoma cells were inoculated subcutaneously; BDf1 mice were given intraperitoneal injections of L-1210 cells. Subcutaneous tumors were measured along their long and short axes every 1 to 3 days; tumor size is reported as the product of the two measurements (mm^2). The examination periods for mice receiving L-1210, MJY-alpha and B-16 tumor grafts were 45, 80, and 85 days, respectively. All mice were autopsied at the time of death or sacrifice.
# B-16 melanoma cells = test: as above; type: in vivo, C57BL/6 mice; conditions: for MEAN SURVIVAL TIME (MST) of recipients: control 28
# Description: as §1
# [2] = tested on: L1210/L-PAM leukemia cells; design: species or system BDF1 mice; conditions: mouse, in vivo
# L1210DDP = test: cells; type: cell-based
# MMTV = type: cell-based, mouse
# MMTV polypeptides = type: cell-based, mouse
structure (smiles),measurement,setting,value
"CCOC(=O)[C@H](CCSC)NC(=O)[C@H](Cc1cccc(N(CCCl)CCCl)c1)NC(=O)[C@@H](N)Cc1ccc(F)cc1.Cl [PTT.119, 3-(p-fluorophenyl)-L-alanyl-3-[m-bis(2-chloroethyl)aminophenyl]-L-alanyl-L-methionine ethyl ester hydrochloride]",% tumor cell survival,"B-95-8 B-lymphoma; 10 ug/ml, 1 hr",100%
same,% tumor cell survival,"B-95-8 B-lymphoma; 10 ug/ml, 4 hr",100%
same,% tumor cell survival,"B-95-8 B-lymphoma; 10 ug/ml, 24 hr",40%
same,% tumor cell survival,"B-95-8 B-lymphoma; 25 ug/ml, 1 hr",100%
same,% tumor cell survival,"B-95-8 B-lymphoma; 25 ug/ml, 4 hr",86%
same,% tumor cell survival,"B-95-8 B-lymphoma; 25 ug/ml, 8 hr",49%
same,% tumor cell survival,"B-95-8 B-lymphoma; 25 ug/ml, 24 hr",20%
same,% tumor cell survival,"B-95-8 B-lymphoma; 50 ug/ml, 1 hr",77%
same,% tumor cell survival,"B-95-8 B-lymphoma; 50 ug/ml, 4 hr",42%
same,% tumor cell survival,"B-95-8 B-lymphoma; 50 ug/ml, 8 hr",26%
same,% tumor cell survival,"B-95-8 B-lymphoma; 50 ug/ml, 24 hr",6%
same,reduction of cell survival,"ALL (N cell leukemia); ALL lymphoblasts, as low as 1 ug",75%
same,% tumor cell survival,"ALL (N cell leukemia); 1 ug/ml, 1 hr",98%
same,% tumor cell survival,"ALL (N cell leukemia); 1 ug/ml, 4 hr",76%
same,% tumor cell survival,"ALL (N cell leukemia); 1 ug/ml, 24 hr",25%
same,% tumor cell survival,"ALL (N cell leukemia); 5 ug/ml, 1 hr",46%
same,% tumor cell survival,"ALL (N cell leukemia); 5 ug/ml, 4 hr",29%
same,% tumor cell survival,"ALL (N cell leukemia); 5 ug/ml, 24 hr",7%
same,% tumor cell survival,"ALL (N cell leukemia); 10 ug/ml, 1 hr",32%
same,% tumor cell survival,"ALL (N cell leukemia); 10 ug/ml, 4 hr",15%
same,% tumor cell survival,"ALL (N cell leukemia); 10 ug/ml, 24 hr",0%
same,% tumor cell survival,"ALL (N cell leukemia); 25 ug/ml, 1 hr",15%
same,% tumor cell survival,"ALL (N cell leukemia); 25 ug/ml, 4 hr",15%
same,% tumor cell survival,"ALL (N cell leukemia); 25 ug/ml, 24 hr",0%
same,% tumor cell survival,"ALL (N cell leukemia); 50 ug/ml, 1 hr",0%
same,% tumor cell survival,"ALL (N cell leukemia); 50 ug/ml, 4 hr",0%
same,% tumor cell survival,"ALL (N cell leukemia); 50 ug/ml, 24 hr",0%
same,tumor growth in recipients,[1]; 10^6 MJY-alpha cells treated with 25 ug or higher for 30 to 240 min,complete absence of tumor growth
same,MEAN SURVIVAL TIME (MST) of recipients,"[1]; MJY-alpha, 5 ug/ml, 60 min",52 days
same,MEAN SURVIVAL TIME (MST) of recipients,"[1]; MJY-alpha, 5 ug/ml, 120 min",43 days
same,MEAN SURVIVAL TIME (MST) of recipients,"[1]; MJY-alpha, 10 ug/ml, 30 min",44 days
same,MEAN SURVIVAL TIME (MST) of recipients,"[1]; MJY-alpha, 10 ug/ml, 60 min",46 days
same,MEAN SURVIVAL TIME (MST) of recipients,"[1]; MJY-alpha, 10 ug/ml, 120 min",61 days
same,MEAN SURVIVAL TIME (MST) of recipients,"[1]; MJY-alpha, 25 ug/ml, 30 min",56 days
same,initial lag period between inoculation and appearance of palpable tumors,"[1]; MJY-alpha, increasing dosages, 2 hr treatment",lengthened
same,reduction of viable tumor cell population,"[1]; MJY-alpha, inferred from LD100 of 100 viable cells",at least 99.9%
same,tumor growth rates of untreated and treated cells,"[1]; MJY-alpha, once graft established",identical
same,tumor growth in recipients,B-16 melanoma cells; 10^6 B-16 cells treated with 25 ug or higher for 30 to 240 min,complete absence of tumor growth
same,MEAN SURVIVAL TIME (MST) of recipients,"B-16 melanoma cells; B-16, 5 ug/ml, 60 min",31 days
same,MEAN SURVIVAL TIME (MST) of recipients,"B-16 melanoma cells; B-16, 5 ug/ml, 120 min",33 days
same,MEAN SURVIVAL TIME (MST) of recipients,"B-16 melanoma cells; B-16, 5 ug/ml, 240 min",41 days
same,MEAN SURVIVAL TIME (MST) of recipients,"B-16 melanoma cells; B-16, 10 ug/ml, 30 min",35 days
same,MEAN SURVIVAL TIME (MST) of recipients,"B-16 melanoma cells; B-16, 10 ug/ml, 60 min",35 days
same,MEAN SURVIVAL TIME (MST) of recipients,"B-16 melanoma cells; B-16, 10 ug/ml, 120 min",35 days
same,MEAN SURVIVAL TIME (MST) of recipients,"B-16 melanoma cells; B-16, 10 ug/ml, 240 min",45 days
same,MEAN SURVIVAL TIME (MST) of recipients,"B-16 melanoma cells; B-16, 25 ug/ml, 30 min",52 days
same,MEAN SURVIVAL TIME (MST) of recipients,"B-16 melanoma cells; B-16, 25 ug/ml, 60 min",68 days
same,MEAN SURVIVAL TIME (MST) of recipients,"B-16 melanoma cells; B-16, 25 ug/ml, 120 min",65 days
same,initial lag period between inoculation and appearance of palpable tumors,"B-16 melanoma cells; B-16, increasing dosages, 2 hr treatment",lengthened
same,reduction of viable tumor cell population,"B-16 melanoma cells; B-16, inferred from LD100 of 100 viable cells",at least 99.9%
same,tumor growth rates of untreated and treated cells,"B-16 melanoma cells; B-16, once graft established",identical
same,tumorigenicity of L1210/L-PAM cells,[2],Complete abrogation
same,IC50,"L1210DDP; 24 h, read-out: T.C.D.50",0.525 µM
same,concentration at which remaining L1210DDP population becomes sensitive,L1210DDP; 24 hours exposure,4 to 15 µM
same,share of L1210DDP cells highly susceptible,"L1210DDP; doses of 1 uM, 24 hours",Approximately 60%
same,less MMTV produced compared to controls (labeled uridine),MMTV,37%
same,reduction of MMTV replication,MMTV,27%
same,reduction of viral replication (labeled uridine),MMTV,42%
same,decrease of level of p24 compared to virions from solvent cultures,MMTV polypeptides,36%
same,level of nonglycosylated protein p24 in MMTV particles,MMTV polypeptides,substantial decreases
same,level of p24 protein in the virion core,MMTV polypeptides,diminution
same,reduction in p24,MMTV polypeptides,71%
same,relative level of p24 compared to control,MMTV polypeptides,35-40%
same,"relative contribution of p24 in the virions, % of control level",MMTV polypeptides; hydrochloride,54% and 74% and 65%
